Laboratory results taken from ChEMBL document CHEMBL5724914, “Linking interpersonal differences in gut microbiota composition and drug biotransformation activity” (2024).

Legend:
[1] = human gut metagenome, 24 h, 2 µM
[2] = human gut metagenome, 24 h, 2 µM; remark: listed apart in the source
[3] = (§1) The drug is tested on Z-025 corresponding to rabbit gut metagenome with ENA study accession number: PRJEB37062 and ENA sample accession number: ERS12561824 for biotransformation under anaerobic condition. The drug concentrations were measured over 9 timepoints collected between 0 and 24 hours of incubation by liquid-chromatography-coupled mass spectrometry (LC–MS); conditions: 2 µM
[4] = as §1, with “Z-014” for “Z-025”, “rat” for “rabbit”, “ERS12561814” for “ERS12561824”; conditions: 2 µM
[5] = as §1, with “Z-022” for “Z-025”, “mouse” for “rabbit”, “ERS12561821” for “ERS12561824”; conditions: 2 µM
[6] = as §1, with “Z-021” for “Z-025”, “to” for “to rabbit gut”, “ERS12561820” for “ERS12561824”; conditions: 2 µM
[7] = human gut metagenome, 24 h, 2 µM; remark: listed apart in the source
[8] = human gut metagenome, 24 h, 2 µM; remark: listed apart in the source
[9] = human gut metagenome, 24 h, 2 µM; remark: listed apart in the source
[10] = human gut metagenome, 24 h, 2 µM; remark: listed apart in the source
[11] = human gut metagenome, 24 h, 2 µM; remark: listed apart in the source
[12] = as §1, with “WLS-007” for “Z-025”, “human” for “rabbit”, “ERS12561742” for “ERS12561824”; conditions: 2 µM
[13] = as §1, with “WLS-027” for “Z-025”, “human” for “rabbit”, “ERS12561744” for “ERS12561824”; conditions: 2 µM
[14] = as §1, with “Z-004” for “Z-025”, “to” for “to rabbit gut”, “ERS12561804” for “ERS12561824”; conditions: 2 µM
[15] = as §1, with “Z-020” for “Z-025”, “ERS12561819” for “ERS12561824”; conditions: 2 µM
[16] = human gut metagenome, 24 h, 2 µM; remark: listed apart in the source
[17] = as §1, with “WLS-170” for “Z-025”, “human” for “rabbit”, “ERS12561762” for “ERS12561824”; conditions: 2 µM
[18] = as §1, with “Z-001” for “Z-025”, “mouse” for “rabbit”, “ERS12561801” for “ERS12561824”; conditions: 2 µM
[19] = human gut metagenome, 24 h, 2 µM; remark: listed apart in the source
[20] = as §1, with “Z-026” for “Z-025”, “to” for “to rabbit gut”, “ERS12561825” for “ERS12561824”; conditions: 2 µM
Note: call rule not given here.

In the case of `OC(Cn1cncn1)(Cn1cncn1)c1ccc(F)cc1F` [FLUCONAZOLE], the “Bacterial Biotransformation” value [1] is reported as “Compound NOT metabolized”, the “Bacterial Biotransformation” value [2] is reported as “Compound metabolized” and the “Bacterial Biotransformation” value [3] is reported as “Compound NOT metabolized”. For the same molecule, the “Bacterial Biotransformation” value [4] was “Compound NOT metabolized”, the “Bacterial Biotransformation” value [5] was “Compound metabolized” and the “Bacterial Biotransformation” value [6] was “Compound metabolized”. The “Bacterial Biotransformation” value [7] was “Compound metabolized”, the “Bacterial Biotransformation” value [8] was “Compound NOT metabolized” and the “Bacterial Biotransformation” value [9] was “Compound metabolized”. The “Bacterial Biotransformation” value [10] was “Compound metabolized”, the “Bacterial Biotransformation” value [11] was “Compound NOT metabolized” and the “Bacterial Biotransformation” value [12] was “Compound metabolized”. For the same molecule, the “Bacterial Biotransformation” value [13] was “Compound metabolized”, the “Bacterial Biotransformation” value [14] was “Compound NOT metabolized” and the “Bacterial Biotransformation” value [15] was “Compound NOT metabolized”. The “Bacterial Biotransformation” value [16] was “Compound metabolized”, the “Bacterial Biotransformation” value [17] was “Compound metabolized” and the “Bacterial Biotransformation” value [18] was “Compound NOT metabolized”. The “Bacterial Biotransformation” value [19] was “Compound NOT metabolized” and the “Bacterial Biotransformation” value [20] was “Compound NOT metabolized”.
In the case of `CNCCC(Oc1ccc(C(F)(F)F)cc1)c1ccccc1` (stereo not given) [FLUOXETINE], the “Bacterial Biotransformation” value [1] is reported as “Compound metabolized”, the “Bacterial Biotransformation” value [2] is reported as “Compound NOT metabolized” and the “Bacterial Biotransformation” value [3] is reported as “Compound NOT metabolized”. For the same molecule, the “Bacterial Biotransformation” value [4] was “Compound NOT metabolized”, the “Bacterial Biotransformation” value [5] was “Compound NOT metabolized” and the “Bacterial Biotransformation” value [6] was “Compound NOT metabolized”. The “Bacterial Biotransformation” value [7] was “Compound NOT metabolized”, the “Bacterial Biotransformation” value [8] was “Compound NOT metabolized” and the “Bacterial Biotransformation” value [9] was “Compound NOT metabolized”. For the same molecule, the “Bacterial Biotransformation” value [10] was “Compound NOT metabolized”, the “Bacterial Biotransformation” value [11] was “Compound NOT metabolized” and the “Bacterial Biotransformation” value [12] was “Compound NOT metabolized”. The “Bacterial Biotransformation” value [13] was “Compound NOT metabolized”, the “Bacterial Biotransformation” value [14] was “Compound NOT metabolized” and the “Bacterial Biotransformation” value [15] was “Compound NOT metabolized”. The “Bacterial Biotransformation” value [16] was “Compound metabolized”, the “Bacterial Biotransformation” value [17] was “Compound NOT metabolized” and the “Bacterial Biotransformation” value [18] was “Compound NOT metabolized”. For the same molecule, the “Bacterial Biotransformation” value [19] was “Compound NOT metabolized” and the “Bacterial Biotransformation” value [20] was “Compound NOT metabolized”.
For `O=C(CCCN1CCC(O)(c2ccc(Cl)cc2)CC1)c1ccc(F)cc1` [HALOPERIDOL], the “Bacterial Biotransformation” value [1] was “Compound NOT metabolized”, the “Bacterial Biotransformation” value [2] was “Compound NOT metabolized” and the “Bacterial Biotransformation” value [3] was “Compound NOT metabolized”. The “Bacterial Biotransformation” value [4] was “Compound NOT metabolized”, the “Bacterial Biotransformation” value [5] was “Compound NOT metabolized” and the “Bacterial Biotransformation” value [6] was “Compound NOT metabolized”. For the same molecule, the “Bacterial Biotransformation” value [7] was “Compound NOT metabolized”, the “Bacterial Biotransformation” value [8] was “Compound NOT metabolized” and the “Bacterial Biotransformation” value [9] was “Compound NOT metabolized”. The “Bacterial Biotransformation” value [10] was “Compound NOT metabolized”, the “Bacterial Biotransformation” value [11] was “Compound NOT metabolized” and the “Bacterial Biotransformation” value [12] was “Compound NOT metabolized”. For the same molecule, the “Bacterial Biotransformation” value [13] was “Compound metabolized”, the “Bacterial Biotransformation” value [14] was “Compound NOT metabolized” and the “Bacterial Biotransformation” value [15] was “Compound NOT metabolized”. The “Bacterial Biotransformation” value [16] was “Compound metabolized”, the “Bacterial Biotransformation” value [17] was “Compound metabolized” and the “Bacterial Biotransformation” value [18] was “Compound NOT metabolized”. For the same molecule, the “Bacterial Biotransformation” value [19] was “Compound NOT metabolized” and the “Bacterial Biotransformation” value [20] was “Compound NOT metabolized”.
For `CCCCC1=NC2(CCCC2)C(=O)N1Cc1ccc(-c2ccccc2-c2nnn[nH]2)cc1` [IRBESARTAN], the “Bacterial Biotransformation” value [1] was “Compound metabolized”, the “Bacterial Biotransformation” value [2] was “Compound metabolized” and the “Bacterial Biotransformation” value [3] was “Compound NOT metabolized”. For the same molecule, the “Bacterial Biotransformation” value [4] was “Compound NOT metabolized”, the “Bacterial Biotransformation” value [5] was “Compound NOT metabolized” and the “Bacterial Biotransformation” value [6] was “Compound NOT metabolized”. The “Bacterial Biotransformation” value [7] was “Compound metabolized”, the “Bacterial Biotransformation” value [8] was “Compound metabolized” and the “Bacterial Biotransformation” value [9] was “Compound metabolized”. The “Bacterial Biotransformation” value [10] was “Compound metabolized”, the “Bacterial Biotransformation” value [11] was “Compound metabolized” and the “Bacterial Biotransformation” value [12] was “Compound metabolized”. The “Bacterial Biotransformation” value [13] was “Compound metabolized”, the “Bacterial Biotransformation” value [14] was “Compound metabolized” and the “Bacterial Biotransformation” value [15] was “Compound metabolized”. For the same molecule, the “Bacterial Biotransformation” value [16] was “Compound metabolized”, the “Bacterial Biotransformation” value [17] was “Compound metabolized” and the “Bacterial Biotransformation” value [18] was “Compound metabolized”. The “Bacterial Biotransformation” value [19] was “Compound metabolized” and the “Bacterial Biotransformation” value [20] was “Compound NOT metabolized”.
For `NC(CO)(CO)CO.O=C(c1ccccc1)c1ccc2n1CCC2C(=O)O` (stereo not given) [KETOROLAC TROMETHAMINE], the “Bacterial Biotransformation” value [1] was “Compound metabolized”, the “Bacterial Biotransformation” value [2] was “Compound metabolized” and the “Bacterial Biotransformation” value [3] was “Compound NOT metabolized”. The “Bacterial Biotransformation” value [4] was “Compound NOT metabolized”, the “Bacterial Biotransformation” value [5] was “Compound metabolized” and the “Bacterial Biotransformation” value [6] was “Compound metabolized”. The “Bacterial Biotransformation” value [7] was “Compound metabolized”, the “Bacterial Biotransformation” value [8] was “Compound metabolized” and the “Bacterial Biotransformation” value [9] was “Compound metabolized”. The “Bacterial Biotransformation” value [10] was “Compound metabolized”, the “Bacterial Biotransformation” value [11] was “Compound metabolized” and the “Bacterial Biotransformation” value [12] was “Compound metabolized”. The “Bacterial Biotransformation” value [13] was “Compound metabolized”, the “Bacterial Biotransformation” value [14] was “Compound NOT metabolized” and the “Bacterial Biotransformation” value [15] was “Compound metabolized”. The “Bacterial Biotransformation” value [16] was “Compound metabolized”, the “Bacterial Biotransformation” value [17] was “Compound metabolized” and the “Bacterial Biotransformation” value [18] was “Compound NOT metabolized”. For the same molecule, the “Bacterial Biotransformation” value [19] was “Compound metabolized” and the “Bacterial Biotransformation” value [20] was “Compound NOT metabolized”.
In the case of `CC[C@H](C)C(=O)O[C@H]1C[C@@H](C)C=C2C=C[C@H](C)[C@H](CC[C@@H]3C[C@@H](O)CC(=O)O3)[C@H]21` [LOVASTATIN], the “Bacterial Biotransformation” value [1] is reported as “Compound NOT metabolized”, the “Bacterial Biotransformation” value [2] is reported as “Compound metabolized” and the “Bacterial Biotransformation” value [3] is reported as “Compound metabolized”. The “Bacterial Biotransformation” value [4] was “Compound NOT metabolized”, the “Bacterial Biotransformation” value [5] was “Compound metabolized” and the “Bacterial Biotransformation” value [6] was “Compound metabolized”. The “Bacterial Biotransformation” value [7] was “Compound metabolized”, the “Bacterial Biotransformation” value [8] was “Compound NOT metabolized” and the “Bacterial Biotransformation” value [9] was “Compound NOT metabolized”. For the same molecule, the “Bacterial Biotransformation” value [10] was “Compound NOT metabolized”, the “Bacterial Biotransformation” value [11] was “Compound NOT metabolized” and the “Bacterial Biotransformation” value [12] was “Compound NOT metabolized”. The “Bacterial Biotransformation” value [13] was “Compound NOT metabolized”, the “Bacterial Biotransformation” value [14] was “Compound NOT metabolized” and the “Bacterial Biotransformation” value [15] was “Compound metabolized”. The “Bacterial Biotransformation” value [16] was “Compound NOT metabolized”, the “Bacterial Biotransformation” value [17] was “Compound NOT metabolized” and the “Bacterial Biotransformation” value [18] was “Compound NOT metabolized”. The “Bacterial Biotransformation” value [19] was “Compound NOT metabolized” and the “Bacterial Biotransformation” value [20] was “Compound metabolized”.
For `CN1C(=O)CC(C)(c2ccccc2)C1=O` (stereo not given) [METHSUXIMIDE], the “Bacterial Biotransformation” value [1] was “Compound NOT metabolized”, the “Bacterial Biotransformation” value [2] was “Compound metabolized” and the “Bacterial Biotransformation” value [3] was “Compound NOT metabolized”. For the same molecule, the “Bacterial Biotransformation” value [4] was “Compound NOT metabolized”, the “Bacterial Biotransformation” value [5] was “Compound metabolized” and the “Bacterial Biotransformation” value [6] was “Compound metabolized”. The “Bacterial Biotransformation” value [7] was “Compound NOT metabolized”, the “Bacterial Biotransformation” value [8] was “Compound NOT metabolized” and the “Bacterial Biotransformation” value [9] was “Compound NOT metabolized”. The “Bacterial Biotransformation” value [10] was “Compound NOT metabolized”, the “Bacterial Biotransformation” value [11] was “Compound NOT metabolized” and the “Bacterial Biotransformation” value [12] was “Compound NOT metabolized”. For the same molecule, the “Bacterial Biotransformation” value [13] was “Compound NOT metabolized”, the “Bacterial Biotransformation” value [14] was “Compound NOT metabolized” and the “Bacterial Biotransformation” value [15] was “Compound NOT metabolized”. The “Bacterial Biotransformation” value [16] was “Compound metabolized”, the “Bacterial Biotransformation” value [17] was “Compound metabolized” and the “Bacterial Biotransformation” value [18] was “Compound NOT metabolized”. For the same molecule, the “Bacterial Biotransformation” value [19] was “Compound NOT metabolized” and the “Bacterial Biotransformation” value [20] was “Compound NOT metabolized”.
For `CNC(=C[N+](=O)[O-])NCCSCc1csc(CN(C)C)n1` [NIZATIDINE], the “Bacterial Biotransformation” value [1] was “Compound NOT metabolized”, the “Bacterial Biotransformation” value [2] was “Compound metabolized” and the “Bacterial Biotransformation” value [3] was “Compound NOT metabolized”. The “Bacterial Biotransformation” value [4] was “Compound NOT metabolized”, the “Bacterial Biotransformation” value [5] was “Compound metabolized” and the “Bacterial Biotransformation” value [6] was “Compound NOT metabolized”. For the same molecule, the “Bacterial Biotransformation” value [7] was “Compound NOT metabolized”, the “Bacterial Biotransformation” value [8] was “Compound NOT metabolized” and the “Bacterial Biotransformation” value [9] was “Compound metabolized”. The “Bacterial Biotransformation” value [10] was “Compound metabolized”, the “Bacterial Biotransformation” value [11] was “Compound NOT metabolized” and the “Bacterial Biotransformation” value [12] was “Compound NOT metabolized”. The “Bacterial Biotransformation” value [13] was “Compound NOT metabolized”, the “Bacterial Biotransformation” value [14] was “Compound NOT metabolized” and the “Bacterial Biotransformation” value [15] was “Compound NOT metabolized”. The “Bacterial Biotransformation” value [16] was “Compound metabolized”, the “Bacterial Biotransformation” value [17] was “Compound metabolized” and the “Bacterial Biotransformation” value [18] was “Compound NOT metabolized”. The “Bacterial Biotransformation” value [19] was “Compound NOT metabolized” and the “Bacterial Biotransformation” value [20] was “Compound NOT metabolized”.
